Legend:
[1] = test system: adults with Pompe disease; assay: Study ATB200-02: SGIC and PGIC; assay type: in vivo, human; details: 48 months follow-up
[2] = test system: adult subjects with late-onset Pompe disease (LOPD); assay: Study ATB200-03 (PROPEL): 6-minute walk test (6MWD); assay type: in vivo, human
Protocol: Efficacy Analyses. The primary efficacy endpoint (i.e., change from baseline to Week 52 in 6MWD) was analyzed using a parametric analysis of covariance (ANCOVA) model to compare between the new treatment and the control. […] However, the baseline 6MWD could not be used in the model twice (both as a continuous and a categorical variable) due to the expected high point biserial correlation between them. Thus, the 6MWD continuous variable remained in the model but the categorical 6MWD was removed.
The test for the primary endpoint was conducted first at the 1-sided 0.025 significance level, and if significant, the ordered key secondary endpoints were similarly tested at the same significance level. The statistical significance of the key secondary endpoints was interpreted following a hierarchical testing order, each at the 1-sided alpha level of 0.025. […] Primary analyses of efficacy were performed using the mixed-effect model for repeated measures (MMRM) for 6MWD in Intent-to-treat Observed Population (ITT) that includes all available, observed data without any missing data imputation (ITT-OBS) and analysis of covariance (ANCOVA) for all other endpoints in the Intent-to-Treat-Last Observation Carried Forward (ITT-LOCF) Population. A nonparametric randomization based ANCOVA was specified as the first sensitivity analysis for 6MWD and FVC. […] For the purposes of data presentation in this document, 2-sided p-values are reported hereafter, except as otherwise noted.
Analysis of 6MWD was performed using an MMRM model with actual time point of assessments on the ITT-OBS and excluding the outlier Subject 4005-2511. Specifically, the dependent variable is the change from baseline in the assessment. Independent variables include the fixed, categorical effects of treatment, ERT status, and gender, as well as the fixed, continuous covariates of time of assessment (days), baseline 6MWD, baseline age, baseline weight, and baseline height, and the treatment-by-time interaction. A random intercept of subject is also included in the model. Change from baseline at Week 52 for each treatment group and the difference between treatment groups were then estimated with the LS means at Day 364, together with the 95% CIs.

[3] = Cohort 1, ambulatory ERT-experienced, N = 7
[4] = Cohort 2, non-ambulatory ERT-experienced, N = 5
[5] = Cohort 3, ambulatory ERT-naïve, N = 6
[6] = Cohort 4, ambulatory ERT-experienced, N = 6
[7] = Baseline, ITT, ERT-naïve Population excluding Subject 4005-2511
[8] = Week 52-LOCF, ERT-experienced Population
[9] = Week 52-LOCF, ITT excluding Subject 4005-2511
[10] = Week 52-LOCF, ITT, ERT-naïve Population excluding Subject 4005-2511
[11] = Week 52-Observed, ERT-experienced Population
[12] = Week 52-Observed, ITT excluding Subject 4005-2511
[13] = Week 52-Observed, ITT, ERT-naïve Population excluding Subject 4005-2511

## ATB200/miglustat: two-component therapy: cipaglucosidase alfa (ATB200) administered in conjunction with miglustat (AT2221), a stabilizer of cipaglucosidase alfa
[1]; [3]
  PGIC: Declined, %: (0) %
  PGIC: Improved, %: (57.1) %
  PGIC: No change, %: (42.9) %
  SGIC; Overall physical wellbeing: Declined, %: (0) %
  SGIC; Overall physical wellbeing: Improved, %: (85.7) %
  SGIC; Overall physical wellbeing: No change, %: (14.3) %
[1]; [4]
  PGIC: Declined, %: (0) %
  PGIC: Improved, %: (60.0) %
  PGIC: No change, %: (40.0) %
  SGIC; Overall physical wellbeing: Declined, %: (0) %
  SGIC; Overall physical wellbeing: Improved, %: (60.0) %
  SGIC; Overall physical wellbeing: No change, %: (40.0) %
[1]; [5]
  PGIC: Declined, %: (0) %
  PGIC: Improved, %: (100.0) %
  PGIC: No change, %: (0) %
  SGIC; Overall physical wellbeing: Declined, %: (0) %
  SGIC; Overall physical wellbeing: Improved, %: (83.3) %
  SGIC; Overall physical wellbeing: No change, %: (16.7) %
[1]; [6]
  PGIC: Declined, %: (0) %
  PGIC: Improved, %: (33.3) %
  PGIC: No change, %: (66.7) %
  SGIC; Overall physical wellbeing: Declined, %: (16.7) %
  SGIC; Overall physical wellbeing: Improved, %: (66.7) %
  SGIC; Overall physical wellbeing: No change, %: (16.7) %

## alglucosidase alfa [reference compound]
[2]; [7]
  6MWD Absolute Value, Mean: 420.94 meters
  6MWD Absolute Value, Median: 385.50 meters
[2]; ERT switch (ERT-experienced) population
  6MWD CFBL at Week 52: 0.0 m
[2]; ERT switch (ERT-experienced) population, listed as Alglucosidase alfa
  6MWD CFBL at Week 52: 0.0 (7.2) m
[2]; ERT treatment naive population
  6MWD CFBL at Week 52: 38 m
[2]; ERT treatment naive population, listed as Alglucosidase alfa
  6MWD CFBL at Week 52: +38.3 (11.1) m
[2]; ERT-experienced Population (n=95)
  mean (SD) change in 6MWD from baseline to Week 52: 0.7 (39.84) meters
[2]; ERT-naïve Population excluding Subject 4005-2511 (n=27)
  mean (SD) change in 6MWD from baseline to Week 52: 38.3 (29.32) meters
[2]; ITT population excluding Subject 4005-2511
  mean (SD) change in 6MWD from baseline to Week 52: 8.0 (40.56) meters
[2]; ITT-OBS excluding Subject 4005-2511, Week 52
  6MWD LS mean improvement from baseline, MMRM with actual time point of assessments: 8.3 m
[2]; ITT-OBS, ERT-naïve Population excluding Subject 4005-2511
  Change in 6MWD baseline to Week 52, LS means (SE) from MMRM: 39.47 (17.15) meters
[2]; MMRM, actual time point of assessments, ITT-OBS Population excluding Subject 4005-2511 (overall)
  CHG to week 52 in 6MWD, LS Mean (95% CI): 8.3 (−2.2, 18.8) m
[2]; MMRM, actual time point of assessments, ITT-OBS excluding Subject 4005-2511, ERT-naïve Subjects
  CHG to Week 52 in 6MWD, LS Mean: 52.7
[2]; MMRM, actual time point of assessments, ITT-OBS, ERT-experienced Subjects
  CHG to Week 52 in 6MWD, LS Mean: 0.9
[2]; [8]
  6MWD Absolute Value, Mean (SD): 334.60 (129.506) meters
  6MWD Absolute Value, Median: 339.03 meters
  6MWD CHG, Mean (SD): −0.02 (39.345) meters
  6MWD CHG, Median: −8.93 meters
[2]; [9]
  6MWD Absolute Value, Mean: 358.19 meters
  6MWD Absolute Value, Median: 370.00 meters
  6MWD CHG, Mean: 7.24 meters
  6MWD CHG, Median: 1.40 meters
[2]; [10]
  6MWD Absolute Value, Mean: 459.28 meters
  6MWD Absolute Value, Median: 446.50 meters
  6MWD CHG (change from baseline), Mean: 38.34 meters
  6MWD CHG (change from baseline), Median: 33.50 meters
[2]; [11]
  6MWD Absolute Value, Mean (SD): 335.66 (131.666) meters
  6MWD Absolute Value, Median: 348.00 meters
  6MWD CHG, Mean (SD): 0.70 (39.841) meters
  6MWD CHG, Median: −8.65 meters
[2]; [12]
  6MWD Absolute Value, Mean: 359.70 meters
  6MWD Absolute Value, Median: 371.75 meters
  6MWD CHG, Mean: 8.02 meters
  6MWD CHG, Median: 3.15 meters
[2]; [13]
  6MWD Absolute Value, Mean: 459.28 meters
  6MWD Absolute Value, Median: 446.50 meters
  6MWD CHG (change from baseline), Mean: 38.34 meters
  6MWD CHG (change from baseline), Median: 33.50 meters
[2]; Week 52, ANCOVA, ITT-LOCF excluding outliers with externally studentized residuals >3
  LS Mean (SE), Change from Baseline in 6MWD: 6.95 (6.951) meters
[2]; Week 52, MMRM, ITT-OBS excluding Subject 4005-2511
  6MWD CHG, LS mean (SE): 7.10 (7.043) meters
[2]; Week 52, MMRM, ITT-OBS, ERT-experienced Population
  6MWD CHG, LS means (SE): 0.59 (7.569) meters
[2]; overall ERT switch + ERT naïve population
  6MWD CFBL at Week 52: 7 m
[2]; overall ERT switch + ERT naïve population, listed as Alglucosidase alfa
  6MWD CFBL at Week 52: +7.2 (6.6) m
[2]; overall ERT switch + ERT naïve population, listed as alglucosidase alfa/placebo
  6MWD CFBL at Week 52: 7 m

Reference: patent US20260041744A1, “Methods for Treating Pompe Disease” (Amicus Therapeutics, Inc., priority 2022, published 2026)
